In patent US8729014B2, “Specific HCV NS3 protease inhibitors” (RFS Pharma, LLC, priority 2010, dated 2014):
pEC50, pIC50: −log10 of the molar value.

Experiments:
Cathepsin S = target: T1, Cathepsin S (Homo sapiens, UniProt P25774); experiment: Inhibition of human proteases: cathepsin S; assay type: biochemical
T1 construct: purchased Anaspec
Procedure: In an effort to circumvent similar toxicities, new protease inhibitors were evaluated for inhibition of a panel of important human proteases. The enzymes tested are Elastase (Neutrophil), Plasmin, Thrombin, and Cathepsin S.
Cathespsin S (Sensolyte Cathepsin S Activity Assay Kit (Anaspec)): Reactions were conducted in a sample volume of 100 μL per well in a black 96 well plate. Protocol A was followed from the kit insert where DTT was added to assay buffer to yield a […] concentration. Included in each assay were a positive control (diluted enzyme and no test compound), inhibitor control (contains diluted enzyme and plasmin inhibitor; component E or thrombin inhibitor; N-a-NAPAP synthetic inhibitor) and substrate control (assay buffer and substrate). Vehicle and autofluorescence controls were also performed. Drug dilutions were added (10 μL) at 10× concentrations in assay buffer. The cathepsin S was added at 40 μL/well at a concentration of 2.5 μg/mL to all wells except the substrate control. Finally, 50 µL of assay buffer containing substrate was added to each well. The substrate was added to a final concentration of 16 nM. […] The fluorescence intensity was read on the Victor 3 plate reader at Ex/Em=490 nm/520 nm. […] Results are shown as substrate control adjusted percentages of maximum absorbance, which was given by the positive control.

[1] = test system: Hepatitis C Virus NS3/4A protease A156T; experiment: biochemical; conditions: A156T vs Wild Type
[2] = target: Hepatitis C Virus NS3/4A protease A156T (Hepatitis C virus genotype 1b, UniProt O92972, A1182T); experiment: biochemical
[3] = test system: Hepatitis C Virus NS3/4A protease D168V; experiment: biochemical; conditions: D168V vs Wild Type
[4] = target: Hepatitis C Virus NS3/4A protease D168V (Hepatitis C virus genotype 1b, UniProt O92972, D1194V); experiment: biochemical
Chymo-trypsin = experiment: Inhibition of human proteases: chymotrypsin; assay type: biochemical
Vero cells = experiment: Cytotoxicity assay in Vero cells; assay type: cell-based; conditions: Chlorocebus sabaeus; VERO cells, 100 μM
Procedure: (§1) The toxicity of the compounds was assessed in Vero, human PBM, CEM (human lymphoblastoid), MT-2, and HepG2 cells, as described previously (see Schinazi R. F., Sommadossi J.-P., Saalmann V., Cannon D. L., Xie M.-Y., Hart G. C., Smith G. A. & Hahn E. F. Antimicrob. Agents Chemother. 1990, 34, 1061-67). Cycloheximide was included as positive cytotoxic control, and untreated cells exposed to solvent were included as negative controls. The cytotoxicity IC50 was obtained from the concentration-response curve using the median effective method described previously (see Chou T.-C. & Talalay P. Adv. Enzyme Regul. 1984, 22, 27-55; Belen'kii M. S. & Schinazi R. F. Antiviral Res. 1994, 25,1-11).

[5] = Cytotoxicity assay in Vero cells; assay type: cell-based; conditions: African green monkey, Vero cells
Procedure: as §1

[6] = target: T2, Hepatitis C Virus NS3/4A protease V170A (UniProt Q9WMX2, V1196A, species not given); assay type: biochemical; conditions: V170A
T2 construct: other: V170A; Anti-HCV protease activity EC90

[7] = test system: Hepatitis C Virus NS3/4A protease V170A; assay type: biochemical; conditions: V170A vs Wild Type
[8] = test system: HCV replicon RNA in Huh 7 Clone B cells; experiment: HCV replicon assay (replicon RNA, real time RT-PCR); assay type: cell-based; conditions: for DCt HCV / HCV (% inhibition of replicon RNA): five days
Procedure: Following five days incubation (37° C., 5% CO2), total cellular RNA was isolated by using versaGene RNA purification kit from Gentra. Replicon RNA and an internal control (TaqMan rRNA control reagents, Applied Biosystems) were amplified in a single step multiplex Real Time RT-PCR Assay. The antiviral effectiveness of the compounds was calculated by subtracting the threshold RT-PCR cycle of the test compound from the threshold RT-PCR cycle of the no-drug control (ΔCt HCV). A ΔCt of 3.3 equals a 1-log reduction (equal to 90% less starting material) in Replicon RNA levels. The cytotoxicity of the compounds was also calculated by using the ΔCt rRNA values. (2′-Me-C) was used as the control. To determine EC90 and IC50 values^2, ΔCt: values were first converted into fraction of starting material^3 and then were used to calculate the % inhibition.

[9] = target: Hepatitis C Virus NS3/4A protease D168A (Hepatitis C virus genotype 1b, UniProt O92972, D1194A); experiment: biochemical
[10] = test system: Hepatitis C Virus NS3/4A protease D168A; experiment: biochemical; conditions: D168A vs Wild Type
Kallikrein = experiment: Inhibition of human proteases: kallikrein; assay type: biochemical
[11] = test system: Hepatitis C Virus NS3/4A protease R155K; experiment: biochemical; conditions: R155K vs Wild Type
[12] = target: Hepatitis C Virus NS3/4A protease R155K (Hepatitis C virus genotype 1b, UniProt O92972, R1181K); experiment: biochemical
[13] = test system: Hepatitis C Virus NS3/4A protease T54A; experiment: biochemical; conditions: T54A vs Wild Type
[14] = target: Hepatitis C Virus NS3/4A protease T54A (Hepatitis C virus genotype 1b, UniProt O92972, T1080A); experiment: biochemical
Cathepsin G = Cathepsin G (Homo sapiens, UniProt P08311); experiment: Inhibition of human proteases: cathepsin G; assay type: biochemical
[15] = Hepatitis C virus, HCV replicon, Huh 7 Clone B cells

**Q.** With `C=C[C@@H]1C[C@]1(NC(=O)[C@@H]1C[C@@H](OC(=O)N2Cc3cccc(F)c3C2)CN1C(=O)[C@@H](NC(=O)OC(C)(C)C)C(C)(C)C)C(=O)NS(=O)(=O)C1CC1` [Compound 10] as the compound, how does the pIC50 (Cathepsin S) read?
**A.** < 4.00

**Q.** And the “Fold Increase of EC50” value [1]?
**A.** 6.7

**Q.** What about the “Fold Increase of EC90” value [1] of the same compound?
**A.** 4.4

**Q.** And the pEC50 [2]?
**A.** 7.48

**Q.** What about the EC90 ([2]; A156T, read-out: Anti-HCV protease activity EC90) of the same compound?
**A.** 130 nM

**Q.** And the “Fold Increase of EC50” value [3]?
**A.** 8.1

**Q.** What about the “Fold Increase of EC90” value [3] of the same compound?
**A.** 21.1

**Q.** And the pEC50 [4]?
**A.** 7.40

**Q.** And the EC90 ([4]; D168V, read-out: Anti-HCV protease activity EC90)?
**A.** 630 nM

**Q.** What about the pIC50 (Chymo-trypsin) of the same compound?
**A.** < 4.00

**Q.** What about the inhibition at 100 µM (Vero cells) of the same compound?
**A.** -0.8%

**Q.** What about the pIC50 [5] of the same compound?
**A.** < 4.00

**Q.** And the pEC50 ([6]; read-out: Anti-HCV protease activity EC50)?
**A.** 8.26

**Q.** What about the EC90 ([6]; read-out: Anti-HCV protease activity EC90) of the same compound?
**A.** 9.5 nM

**Q.** And the “Fold Increase of EC50” value [7]?
**A.** 1.1

**Q.** What about the “Fold Increase of EC90” value [7] of the same compound?
**A.** 0.3

**Q.** And the “DCt HCV” value ([8]; Conc 0.01 μM)?
**A.** 1.16

**Q.** And the “HCV (% inhibition of replicon RNA)” value ([8]; Conc 0.01 μM)?
**A.** 54.99

**Q.** What about the “DCt HCV” value ([8]; Conc 0.03 μM) of the same compound?
**A.** 3.29

**Q.** And the “HCV (% inhibition of replicon RNA)” value ([8]; Conc 0.03 μM)?
**A.** 89.67

**Q.** And the “DCt HCV” value ([8]; Conc 0.1 μM)?
**A.** 6.05

**Q.** What about the “HCV (% inhibition of replicon RNA)” value ([8]; Conc 0.1 μM) of the same compound?
**A.** 98.47

**Q.** What about the “DCt HCV” value ([8]; Conc 0.3 μM) of the same compound?
**A.** 8.72

**Q.** What about the “HCV (% inhibition of replicon RNA)” value ([8]; Conc 0.3 μM) of the same compound?
**A.** 99.76

**Q.** What about the pEC50 [8, 15] of the same compound?
**A.** 8.00

**Q.** What about the EC90 [8, 15] of the same compound?
**A.** 30 nM

**Q.** And the pEC50 [9]?
**A.** 6.24

**Q.** What about the EC90 ([9]; D168A, read-out: Anti-HCV protease activity EC90) of the same compound?
**A.** 8300 nM

**Q.** And the “Fold Increase of EC50” value [10]?
**A.** 115.3

**Q.** And the “Fold Increase of EC90” value [10]?
**A.** 278.5

**Q.** And the pIC50 (Kallikrein)?
**A.** 4.33

**Q.** And the “Fold Increase of EC50” value [11]?
**A.** 55.8

**Q.** What about the “Fold Increase of EC90” value [11] of the same compound?
**A.** 91.4

**Q.** What about the pEC50 [12] of the same compound?
**A.** 6.57

**Q.** And the EC90 ([12]; R155K, read-out: Anti-HCV protease activity EC90)?
**A.** 2700 nM

**Q.** And the “Fold Increase of EC50” value [13]?
**A.** 15.0

**Q.** What about the “Fold Increase of EC90” value [13] of the same compound?
**A.** 28.5

**Q.** And the pEC50 [14]?
**A.** 7.15

**Q.** What about the EC90 ([14]; T54A, read-out: Anti-HCV protease activity EC90) of the same compound?
**A.** 850 nM

**Q.** What about the pIC50 (Cathepsin G) of the same compound?
**A.** < 4.00
